The results in this text go back to US20240101544A1, “INHIBITORS OF QPCTL AND QPCT” (priority 2022, published 2024).

For test [1], the target named is T1, QPCTL (Homo sapiens (Human), UniProt Q9NXS2). The test can be described thus: QPCTL Enzymatic Activity Assay (coupled-enzyme fluorescent assay, H-Gln-AMC substrate). Type of test: biochemical. Conditions: recombinant truncated human QPCTL 10-12 nM, 10 μM H-Gln-AMC; read-out: QPCTL Inhibition IC50.
Target sequence in this assay (Q9NXS2 53-382): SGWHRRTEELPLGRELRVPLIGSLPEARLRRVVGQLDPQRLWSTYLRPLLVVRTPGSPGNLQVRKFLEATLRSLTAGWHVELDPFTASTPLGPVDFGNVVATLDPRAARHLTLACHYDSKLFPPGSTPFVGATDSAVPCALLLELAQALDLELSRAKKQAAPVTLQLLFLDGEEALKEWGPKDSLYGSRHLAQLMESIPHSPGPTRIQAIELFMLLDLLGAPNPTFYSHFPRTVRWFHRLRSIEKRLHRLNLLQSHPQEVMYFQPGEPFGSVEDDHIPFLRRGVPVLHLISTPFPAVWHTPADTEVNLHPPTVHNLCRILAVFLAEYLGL
For test [2], the target named is T1, QPCTL. The test can be described thus: Inhibition of Cellular QPCTL Activity - Imaging Assay, CC2C6 anti-CD47 staining of DLD-1 cells. Type of test: cell-based. Conditions: 72 hours, CC2C6 anti-CD47 high-content imaging. As for the experimental part: Inhibition of Cellular QPCTL Activity—Imaging Assay
The cells were incubated for 72 hours at 37° C. and 5% CO2. […] After primary antibody staining, the cells were fixed with 4% paraformaldehyde in the incubation buffer for 15 minutes at room temperature. […] Cells were analyzed on a ImageXpress Pico Automated Cell Imaging System (Molecular Devices) using 10× objective (3×3 fields).
Target sequence in this assay (Q9NXS2 whole entry, the tested form may be a part): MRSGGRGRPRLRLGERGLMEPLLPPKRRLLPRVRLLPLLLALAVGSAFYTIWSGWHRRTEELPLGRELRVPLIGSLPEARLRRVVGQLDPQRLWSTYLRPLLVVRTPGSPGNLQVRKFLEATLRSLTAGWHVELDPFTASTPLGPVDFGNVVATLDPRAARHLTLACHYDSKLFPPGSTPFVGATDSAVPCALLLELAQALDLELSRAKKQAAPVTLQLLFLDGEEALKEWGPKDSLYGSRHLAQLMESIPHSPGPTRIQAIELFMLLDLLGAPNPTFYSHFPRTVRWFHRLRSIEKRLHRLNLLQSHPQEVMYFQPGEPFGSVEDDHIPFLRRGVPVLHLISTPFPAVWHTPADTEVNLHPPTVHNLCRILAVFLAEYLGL

Another test deals with QPCT (rhQPCT) (Homo sapiens (Human), UniProt Q16769). The experiment in a line: QPCT Enzymatic Activity Assay (coupled-enzyme fluorescent assay, H-Gln-AMC substrate). The settings on record: rhQPCT 10-12 nM, 10 μM H-Gln-AMC; read-out: QPCT Inhibition IC50. Type of test: biochemical. In outline: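 Coupled assay: recombinant human QPCT converts H-Gln-AMC (10 μM final) to pyroglutamyl-AMC, 60 min at 37 °C, stopped by boiling; PGPEP-1 then releases AMC.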

SMILES strings stand for the structures. Where only a bound is given, the exact number is not on record here.

QPCT (rhQPCT), sequence (Q16769 29-361): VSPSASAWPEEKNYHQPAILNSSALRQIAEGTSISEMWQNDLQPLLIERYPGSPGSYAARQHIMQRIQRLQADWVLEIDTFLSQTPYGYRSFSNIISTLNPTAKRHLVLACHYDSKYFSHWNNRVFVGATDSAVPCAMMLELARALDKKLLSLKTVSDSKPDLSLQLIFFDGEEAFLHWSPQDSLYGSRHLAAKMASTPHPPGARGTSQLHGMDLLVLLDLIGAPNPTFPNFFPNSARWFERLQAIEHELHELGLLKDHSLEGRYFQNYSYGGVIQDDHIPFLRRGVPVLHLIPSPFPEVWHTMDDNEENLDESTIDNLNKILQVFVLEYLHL

The term IC50 denotes the midpoint of a concentration-inhibition curve. Consider `CC(=O)c1ccc(-c2ccc(F)nc2)c(N2CCC(c3nncn3C)CC2)c1C#N` [Example 97, 6-acetyl-3-(6-fluoropyridin-3-yl)-2-(4-(4-methyl-4H-1,2,4-triazol-3-yl)piperidin-1-yl)benzonitrile], for which the IC50 on QPCTL [1], on QPCTL [2] and at QPCT (rhQPCT) was less than 100 nM in each case.

On to `Cn1ccc(-c2ccc(-c3ccc(F)nc3)c(N3CCC(c4nncn4C)CC3)c2C#N)n1` [Example 43, 3-(6-fluoropyridin-3-yl)-6-(1-methyl-1H-pyrazol-3-yl)-2-(4-(4-methyl-4H-1,2,4-triazol-3-yl)piperidin-1-yl)benzonitrile], for which the IC50 on QPCTL [1], against QPCTL [2] and on QPCT (rhQPCT) was less than 100 nM throughout.

Regarding `CN1CCC(Oc2ccc(-c3ccc(F)nc3)c(N3CCC(c4nncn4C)CC3)c2C#N)C1` (single isomer, unassigned) [Example 90, 3-(6-fluoropyridin-3-yl)-2-(4-(4-methyl-4H-1,2,4-triazol-3-yl)piperidin-1-yl)-6-((1-methylpyrrolidin-3-yl)oxy)benzonitrile], the IC50 at QPCTL [1], at QPCTL [2] and at QPCT (rhQPCT) was less than 100 nM in each case.

`Cn1cnnc1C1CCN(c2c(-c3ccc(F)nc3)ccc(N3CCOCC3)c2C#N)CC1` [Example 87, 3-(6-fluoropyridin-3-yl)-2-(4-(4-methyl-4H-1,2,4-triazol-3-yl)piperidin-1-yl)-6-morpholinobenzonitrile]: the IC50 on QPCTL [1], on QPCTL [2] and at QPCT (rhQPCT) was less than 100 nM each time.

Turning to `Cc1cc(-c2ccc(-c3cnn(C)c3)c(C#N)c2N2CCC(c3nncn3C)CC2)cnn1` [Example 48, 6-(1-methyl-1H-pyrazol-4-yl)-2-(4-(4-methyl-4H-1,2,4-triazol-3-yl)piperidin-1-yl)-3-(6-methylpyridazin-4-yl)benzonitrile], the IC50 on QPCTL [1], at QPCTL [2] and at QPCT (rhQPCT) was less than 100 nM each time.

For `Cn1cnnc1C1CCN(c2c(-c3ccc(F)nc3)ccc(-c3c[nH]nc3N)c2C#N)CC1` [Example 92, 6-(3-amino-1H-pyrazol-4-yl)-3-(6-fluoropyridin-3-yl)-2-(4-(4-methyl-4H-1,2,4-triazol-3-yl)piperidin-1-yl)benzonitrile], the half-inhibitory concentration (IC50) is less than 100 nM at QPCTL [1], 100 to 1000 nM against QPCTL [2] and less than 100 nM on QPCT (rhQPCT).

As to `Cn1cnnc1C1CCN(c2c(-c3ccc(F)nc3)ccnc2C#N)CC1` [Example 132, 6-fluoro-3′-(4-(4-methyl-4H-1,2,4-triazol-3-yl)piperidin-1-yl)-[3,4′-bipyridine]-2′-carbonitrile], the IC50 at QPCTL [1], against QPCTL [2] and at QPCT (rhQPCT) was less than 100 nM throughout.

In the case of `Cn1cnnc1C1CCN(c2c(-c3ccc(F)nc3)cc3cn[nH]c3c2C#N)CC1` [Example 105, 5-(6-fluoropyridin-3-yl)-6-(4-(4-methyl-4H-1,2,4-triazol-3-yl)piperidin-1-yl)-1H-indazole-7-carbonitrile], the results for the concentration for half-maximal inhibition (IC50) at QPCTL [1], on QPCTL [2] and at QPCT (rhQPCT) were less than 100 nM, 100 to 1000 nM and less than 100 nM, respectively.

Consider `Cn1cnnc1C1CCN(c2c(-c3ccc(F)nc3)ccc(-c3cnn4c3OCCC4)c2C#N)CC1` [Example 64, 6-(6,7-dihydro-5H-pyrazolo[5,1-b][1,3]oxazin-3-yl)-3-(6-fluoropyridin-3-yl)-2-(4-(4-methyl-4H-1,2,4-triazol-3-yl)piperidin-1-yl)benzonitrile], for which the IC50 on QPCTL [1], at QPCTL [2] and on QPCT (rhQPCT) was less than 100 nM each time.

Regarding `Cn1cnnc1C1CCN(c2c(-c3ccc(F)nc3)ccc(-c3cnn(C4CC4)c3)c2C#N)CC1` [Example 63, 6-(1-cyclopropyl-1H-pyrazol-4-yl)-3-(6-fluoropyridin-3-yl)-2-(4-(4-methyl-4H-1,2,4-triazol-3-yl)piperidin-1-yl)benzonitrile], the half-maximal inhibitory concentration (IC50) on QPCTL [1], at QPCTL [2] and on QPCT (rhQPCT) was less than 100 nM in each case.
